Assays:
[1] = system: human BON carcinoid tumor cells; test: Cell proliferation assay (total DNA content, Hoechst 33258); assay type: cell-based; conditions: for effect on BON carcinoid cell growth, measured as DNA content: 10^−8M, drug alone
Procedure: (§1) Human pancreatic carcinoid BON cells were obtained from Dr Townsend (The University of Texas Medical Branch, Galveston, Tex., USA). The cells were cultured in a humidified incubator containing 5% CO2 at 37° C. The culture medium consisted of a 1:1 mixture of Dulbecco's modified Eagle's medium (DMEM) and F12K medium, supplemented with 10% FCS, penicillin (1×105 U/l), fungizone (0.5 mg/l) and 1-glutamine (2 mmol/l). Periodically, cells were confirmed as Mycoplasma-free. Cells were harvested with trypsin EDTA 10% and resuspended in medium. Before plating, cells were counted microscopically using a standard hemocytometer. Trypan Blue staining was used to assess cell viability, which always exceeded 95%. Media and supplements were obtained from GIBCO Bio-cult Europe (Invitrogen, Breda, The Netherlands).
After trypsinization, the cells were plated in 1 ml of medium in 24-well plates at a density of 0.4-2×10^4 cells/well. The plates were then placed in a 37° C., 5% CO2 incubator. Three days later the cell culture medium was replaced with 1 ml/well medium containing 5-aza-2′-deoxycytidine at different concentrations in the dose curve response experiment (0, 10^−5M, 10^−6M, 10^−7M, 10^−8M and 10^−9M) or 5-aza-2′-deoxycytidine (5×10^−8M) with or without the somatostatin analog octreotide (10^−8M) or the dopamine agonist cabergoline (10^−8M). In experiments evaluating the combination of 5-aza-2′-deoxycytidine and octreotide or cabergoline, a pre-treatment with 5-aza-2′-deoxycytidine (5×10^−8M) has been performed for 24 hours.
Plates were further incubated at 37° C. and 5% CO2. After 3 and 6 days of treatment cells were harvested for DNA measurement. Plates for 6 days were refreshed after 3 days and compounds were added again. Quadruplicates of each treatment were performed. Measurement of total DNA-contents, representative for the number of cells, was performed using the bisbenzimide fluorescent dye (Hoechst™ 33258) (Boehring Diagnostics, La Jolla, Calif.), as previously described (Hofland L J, van Koetsveld P M, Lamberts S W. Percoll density gradient centrifugation of rat pituitary tumor cells: a study of functional heterogeneity within and between tumors with respect to growth rates, prolactin production and responsiveness to the somatostatin analog SMS 201-995. Eur J Cancer 1990; 26:37-44.).

[2] = system: human BON carcinoid cells; test: Apoptosis assay (DNA fragmentation, Cell Death Detection ELISA); assay type: cell-based; conditions: for effect on apoptosis, measured as DNA fragmentation, drug alone: 10^−8M
Procedure: as §1, with “Trypan Blue staining was used to assess cell viability, which always exceeded 95%.” left out
After trypsinization BON cells were plated in 24-well plates at a density of 1.5-2×10^4 cells/well. These plates were placed in a 37° C., 5% CO2 incubator. Three days later the medium was refreshed in the presence and absence (control group) of 5-aza-2′-deoxycytidine at different concentrations in the dose curve response experiment (10^−5M, 10^−6M, 10^−7M, 10^−8M and 10^−9M) or 5-aza-2′-deoxycytidine (5×10^−8M) with or without the somatostatin analog octreotide (10^−8M) or the dopamine agonist cabergoline (10^−8M).
Quadruplicates of each treatment were performed. After an additional incubation of 3 days, apoptosis was assessed using a commercially available ELISA kit (Cell Death Detection ELISAPlus, Roche Diagnostic GmbH, Penzberg, Germany). This assay is based on a quantitative sandwich-enzyme-immunoassay-principle, using mouse monoclonal antibodies directed against DNA and histones, respectively. This allows the specific determination of mono- and oligo-nucleosomes in the cytoplasmatic fraction of cell lysate, typical for apoptosis. The standard protocol supplied by the manufacturer was used. Briefly, the medium was carefully removed by suction, cells were incubated in 100 μl of lysis buffer (provided with the Cell Death Detection ELISAPlus assay). After lysis of the cells the solution was incubated with anti-DNA and anti-histone antibodies in a streptavidin-coated 96-well plate for 2 hours. After washing, the immunocomplex-bound peroxidase was probed with 2,2′-azino-di[3-ethylbenzthiazoline sulfonate] (a chromogenic substrate) for spectrophotometric detection at 405 nm, to quantify the amount of nucleosomes bound to the plate. Relative apoptosis was determined by a ratio of the average absorbance of the treatment wells to the average absorbance of the control wells.

Row | SMILES | effect on BON carcinoid cell growth, measured as DNA content ([1]; 3 or 6 day incubation) | effect on apoptosis, measured as DNA fragmentation, drug alone ([2]; 3 day incubation) | inhibition of BON carcinoid cell growth, dose curve ([1]; 3 or 6 day incubation, 10^−9M to 10^−5M, data not shown) | inhibition of BON carcinoid cell growth at low dose ([1]; 5×10^−8M, 6 days, p<0.001 vs control) | IC25 value of the tumor cell growth inhibitory effect ([1]; after 6 days of incubation) | induction of DNA fragmentation ([2]; 5×10^−8M, 3 days, p<0.001 vs control) | induction of DNA fragmentation, dose curve ([2]; 3 day incubation, 10^−9M to 10^−5M, data not shown) | effect of AZA alone on DNA fragmentation (FIG. 3, FIG. 4) ([2]; AZA (5 nM) alone) | EC25 value of the apoptosis inducing effect ([2]; after 3 days of incubation)
1 | C=CCN1C[C@H](C(=O)N(CCCN(C)C)C(=O)NCC)C[C@@H]2c3cccc4[nH]cc(c34)C[C@H]21 [cabergoline] | no statistically significant effect | no statistically significant effect |  |  |  |  |  |  | 
2 | C[C@@H](O)[C@@H]1NC(=O)[C@H](CCCCN)NC(=O)[C@@H](Cc2c[nH]c3ccccc23)NC(=O)[C@H](Cc2ccccc2)NC(=O)[C@@H](NC(=O)[C@H](N)Cc2ccccc2)CSSC[C@@H](C(=O)N[C@H](CO)[C@@H](C)O)NC1=O [octreotide] | no statistically significant effect | no statistically significant effect |  |  |  |  |  |  | 
3 | Nc1ncn([C@H]2C[C@H](O)[C@@H](CO)O2)c(=O)n1 [5-aza-2′-deoxycytidine] |  |  | time- and dose-dependent manner | significantly inhibited | approximately 5×10^−8 M | approximately 100% | dose-dependent manner | moderate effect | approximately 5×10^−8 M

From patent US20140031288A1, “NOVEL COMPOSITION FOR TUMOR GROWTH CONTROL” (Erasmus University Medical Center, priority 2006, published 2014)
